# Values quoted from earlier work in EP1197217A1, “Use of sodium nitroprussiate in obstetrics and gynaecology” (Ibsa Institut Biochimique S.A., priority 2000, dated 2002).
# Several values for one entry are separate records, joined by “and”; a condition that tells them apart may be missing. Identical values can stand only once.
# System: cervix
# Conditions: in vivo
structure (smiles),measurement,value
O=[N+]([O-])O[C@@H]1CO[C@H]2[C@@H]1OC[C@@H]2O [isosorbide mononitrate],cumulative median force necessary to dilate the cervix to 8 mm,40 newtons and 36 newtons
